Holding throughout (format): in vivo
One test has as its system Musca domestica. In words: Musca domestica test. Conditions: application rate 100 ppm; adult houseflies; after 2 days. On the procedure: Solvent: dimethyl sulphoxide
To produce an appropriate active ingredient formulation, 10 mg of active ingredient are mixed with 0.5 ml of dimethyl sulphoxide, and the concentrate is diluted with water to the desired concentration.
Vessels containing a sponge treated with sugar solution and the active ingredient formulation of the desired concentration are populated with 10 adult houseflies (Musca domestica).
After 2 days, the kill in % is determined. 100% means that all of the flies have been killed; 0% means that none of the flies have been killed.

In a further test the test system is Phaedon cochleariae. Description: Phaedon cochleariae spray test. Conditions: application rate 100 g/ha; larvae; after 7 days. In outline:
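Chinese cabbage leaf discs were sprayed with the compound formulated in water containing 1000 ppm emulsifier. After drying, they were infested with mustard beetle larvae. Efficacy was scored as % larvae killed after 7 days (100% = all dead, 0% = none).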

For a further test, the system named is Lucilia cuprina. In words: Lucilia cuprina test. Conditions: application rate 100 ppm; L1 larvae; after 2 days. In outline: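 About 20 L1 larvae placed in vessels with minced horsemeat treated with compound (DMSO concentrate diluted in water) at the desired concentration. Kill (%) scored after 2 days; 100% means all larvae dead, 0% none.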
Another test concerns Boophilus microplus. Description: Boophilus microplus injection test. Particulars: application rate 20 μg/animal; injection into abdomen; assessed after 7 days. The method, boiled down: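 Scoring was by fertile egg laying 7 days after injection, holding doubtful eggs until larvae hatched at about 42 days; 100% = no fertile eggs, 0% = all eggs fertile. Groups of 5 engorged adult female cattle ticks were each injected abdominally with 1 μl of compound in DMSO.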

Test [1] relates to Ctenocephalides felis. Description: Ctenocephalides felis oral test. Conditions: application rate 100 ppm in citrated cattle blood; after 2 days. The method, boiled down: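 Mortality in % was recorded 2 days after about 20 unfed adult cat fleas were allowed to imbibe citrated cattle blood containing the active ingredient through a parafilm membrane. The compound was first taken up in DMSO and then diluted with the blood to the desired concentration.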

The next test deals with Tetranychus urticae. In words: Tetranychus urticae spray test, OP-resistant. Conditions: application rate 100 g/ha; after 6 days. The protocol: Tetranychus urticae—Spray Test, OP-Resistant
To produce an appropriate active ingredient formulation, 1 part by weight of active ingredient is dissolved using the specified parts by weight of solvent and made up with water containing an emulsifier concentration of 1000 ppm until the desired concentration is attained. To produce further test concentrations, the preparation is diluted with emulsifier-containing water.
Discs of bean leaves (Phaseolus vulgaris) infested by all stages of the greenhouse red spider mite (Tetranychus urticae) are sprayed with an active ingredient formulation of the desired concentration.
After 6 days, efficacy in % is determined. 100% means that all the spider mites have been killed; 0% means that none of the spider mites have been killed.

The test system of another test is Rhipicephalus sanguineus. Description: Rhipicephalus sanguineus in vitro contact test with adult brown dog ticks. Conditions: application rate 5 μg/cm^2 (500 g/ha); after 48 h; ticks dead or moribund. The method, boiled down: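 Test tubes (25 ml) were coated by dissolving active ingredient in acetone p.a., diluting to the required concentration, and spreading 250 μl over the inner walls and base on an orbital shaker at 30 rpm for 2 h. Once dry, 5-10 adult Rhipicephalus sanguineus were added, and tubes were capped with perforated lids and kept horizontal in darkness at room temperature. At 48 h, ticks were knocked down and heated at 45-50° C. for up to 5 min. Those unable to climb away were counted dead or moribund, and efficacy ran from 0% to 100%.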

Another test has as its system Spodoptera frugiperda. Description: Spodoptera frugiperda spray test. Conditions: application rate 100 g/ha; caterpillars; after 7 days. The method, boiled down:
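Maize leaf discs were sprayed with compound formulated in solvent plus water containing 1000 ppm emulsifier, dried, then infested with Spodoptera frugiperda caterpillars. Efficacy in % mortality was scored after 7 days (100% all killed, 0% none).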

In test [2] the test system is Ctenocephalides felis. Description: Ctenocephalides felis in vitro contact test with adult cat fleas. Conditions: after 48 h, fleas dead or moribund. The protocol: Ctenocephalides felis—In Vitro Contact Tests with Adult Cat Fleas
For the coating of the test tubes, 9 mg of active ingredient are first dissolved in 1 ml of acetone p.a. and then diluted to the desired concentration with acetone p.a. 250 μl of the solution are distributed homogeneously on the inner walls and base of a 25 ml test tube by turning and rocking on an orbital shaker (rocking rotation at 30 rpm for 2 h). With 900 ppm active ingredient solution and internal surface 44.7 cm^2, given homogeneous distribution, an area-based dose of 5 μg/cm^2 is achieved.
After the solvent has evaporated off, the tubes are populated with 5-10 adult cat fleas (Ctenocephalides felis), sealed with a perforated plastic lid and incubated in a horizontal position at room temperature and ambient humidity. After 48 h, efficacy is determined. To this end, the test tubes are stood upright and the fleas are knocked to the base of the tube. Fleas which remain motionless at the base or move in an uncoordinated manner are considered to be dead or moribund.
100% efficacy means that all the fleas were dead or moribund. 0% efficacy means that no fleas were harmed.

[3] abbreviates: application rate 5 μg/cm^2 (500 g/ha).

`COC1CCC(C(=O)Nc2cc(-c3cnn(-c4c(C(F)(F)F)c(C(F)(F)C(F)(F)F)nn4C)c3)ccc2F)CC1` (mixture of isomers) [Example 1-047]: the results for the “efficacy (kill in %)” value with Musca domestica, in the test with Lucilia cuprina and in the test on Ctenocephalides felis [1] were 80%, 100% and 100%, respectively. Also, the efficacy with Phaedon cochleariae and in the test on Tetranychus urticae was 100% each time. In addition, the “efficacy (laying of fertile eggs)” value in the test with Boophilus microplus is given as 100%.

Consider `Cn1nc(C(F)(F)C(F)(F)F)c(C(F)(F)F)c1-n1cc(-c2cccc(NC(=O)CC(F)(F)F)c2)cn1` [Example 1-007], for which the “efficacy (kill in %)” value in the test on Musca domestica, with Lucilia cuprina and in the test with Ctenocephalides felis [1] was 100% throughout. Also, the efficacy in the test on Phaedon cochleariae was found to be 100%; in the test on Rhipicephalus sanguineus it was 100%; with Spodoptera frugiperda it was 100%; in the test with Tetranychus urticae it was 90%. For the same compound, in the test on Boophilus microplus, the “efficacy (laying of fertile eggs)” value stood at 100%.

As to `Cn1nc(C(F)(F)C(F)(F)F)c(C(F)(F)F)c1-n1cc(-c2cccc(NC(=O)c3cccc(F)c3)c2)cn1` [Example 1-013], the “efficacy (kill in %)” value in the test with Musca domestica worked out at 90%; in the test with Lucilia cuprina, 100%; in the test on Ctenocephalides felis [1] it was 100%. Moreover, the efficacy in the test with Phaedon cochleariae, in the test with Rhipicephalus sanguineus, in the test on Spodoptera frugiperda, with Ctenocephalides felis [2] (setting [3]) and in the test on Tetranychus urticae was 100% throughout. Also, the “efficacy (laying of fertile eggs)” value with Boophilus microplus was found to be 100%.

Take `Cn1nc(C(F)(F)C(F)(F)F)c(C(F)(F)F)c1-n1cc(-c2cccc(NC(=O)c3cc(F)cc(F)c3)c2)cn1` [Example 1-014]: the “efficacy (kill in %)” value with Musca domestica is recorded as 90%; in the test with Lucilia cuprina, 100%; in the test with Ctenocephalides felis [1], 100%. Further, the efficacy with Phaedon cochleariae is reported as 100%; in the test on Rhipicephalus sanguineus, 100%; in the test with Spodoptera frugiperda it was 100%; in the test with Ctenocephalides felis [2] (application rate 1 μg/cm^2 (100 g/ha)), 80%; in the test with Tetranychus urticae, 90%. Further, the “efficacy (laying of fertile eggs)” value with Boophilus microplus is recorded as 100%.

Turning to `Cn1nc(C(F)(F)C(F)(F)F)c(C(F)(F)F)c1-n1cc(-c2cccc(NC(=O)c3cccnc3Cl)c2)cn1` [Example 1-028], the “efficacy (kill in %)” value in the test with Musca domestica, in the test with Lucilia cuprina and with Ctenocephalides felis [1] was 100% each time. Further, the efficacy in the test with Phaedon cochleariae, in the test on Rhipicephalus sanguineus, in the test with Spodoptera frugiperda, with Ctenocephalides felis [2] (setting [3]) and in the test with Tetranychus urticae was 100% throughout. The “efficacy (laying of fertile eggs)” value in the test with Boophilus microplus was 100%.

Consider `Cn1nc(C(F)(F)C(F)(F)F)c(C(F)(F)F)c1-n1cc(-c2ccc(F)c(NC(=O)c3ccncn3)c2)cn1` [Example 1-034], for which the “efficacy (kill in %)” value in the test with Musca domestica, in the test on Lucilia cuprina and in the test on Ctenocephalides felis [1] was 100% throughout. Moreover, the efficacy with Phaedon cochleariae, in the test with Rhipicephalus sanguineus, in the test with Spodoptera frugiperda, in the test on Ctenocephalides felis [2] (setting [3]) and with Tetranychus urticae was 100% in each case. The “efficacy (laying of fertile eggs)” value with Boophilus microplus was determined as 100%.

For the compound `Cn1cc(C(=O)Nc2cc(-c3cnn(-c4c(C(F)(F)F)c(C(F)(F)C(F)(F)F)nn4C)c3)ccc2F)cn1` [Example 1-035], the “efficacy (kill in %)” value with Musca domestica, in the test on Lucilia cuprina and in the test on Ctenocephalides felis [1] was 100% each time. Also, the efficacy was found to be 100% in the test on Phaedon cochleariae, 80% in the test with Rhipicephalus sanguineus, 100% with Spodoptera frugiperda and 100% with Tetranychus urticae. The “efficacy (laying of fertile eggs)” value in the test with Boophilus microplus is listed as 100%.

With `Cn1nc(C(F)(F)C(F)(F)F)c(C(F)(F)F)c1-n1cc(-c2ccc(F)c(NC(=O)C3CC3)c2)cn1` [Example 1-055], the “efficacy (kill in %)” value in the test with Musca domestica, in the test with Lucilia cuprina and with Ctenocephalides felis [1] was 100% each time. The efficacy in the test with Phaedon cochleariae stood at 100%; in the test with Rhipicephalus sanguineus, 80%; in the test with Spodoptera frugiperda it was 100%; with Tetranychus urticae, 90%. Besides, the “efficacy (laying of fertile eggs)” value with Boophilus microplus stood at 100%.

`Cn1nc(C(F)(F)C(F)(F)F)c(C(F)(F)F)c1-n1cc(-c2ccc(F)c(NC(=O)C3(C)CC3)c2)cn1` [Example 1-058]: the figures for the “efficacy (kill in %)” value with Musca domestica, in the test on Lucilia cuprina and in the test with Ctenocephalides felis [1] were 80%, 100% and 100%, respectively. In addition, the efficacy with Rhipicephalus sanguineus was found to be 100%; in the test with Spodoptera frugiperda it was 83%; in the test with Ctenocephalides felis [2] (setting [3]) it was 100%; in the test with Tetranychus urticae it was 100%. In addition, the “efficacy (laying of fertile eggs)” value with Boophilus microplus is 100%.

On to `Cn1nc(C(F)(F)C(F)(F)F)c(C(F)(F)F)c1-n1cc(-c2ccc(F)c(NC(=O)c3ccccc3F)c2)cn1` [Example 1-071], for which the figures for the “efficacy (kill in %)” value in the test on Musca domestica, in the test on Lucilia cuprina and with Ctenocephalides felis [1] were 80%, 100% and 90%, respectively. Further, the efficacy in the test with Phaedon cochleariae, in the test with Spodoptera frugiperda and with Tetranychus urticae was 100% each time. For the same compound, the “efficacy (laying of fertile eggs)” value with Boophilus microplus amounted to 100%.

Take `Cn1nc(C(F)(F)C(F)(F)F)c(C(F)(F)F)c1-n1cc(-c2ccc(F)c(NC(=O)c3ccc4c(c3)OC(F)(F)O4)c2)cn1` [Example 1-084]: the “efficacy (kill in %)” value with Musca domestica, in the test with Lucilia cuprina and in the test with Ctenocephalides felis [1] was 100% in each case. Besides, the efficacy is on record as 100% with Phaedon cochleariae, 80% with Rhipicephalus sanguineus and 100% in the test with Spodoptera frugiperda. Moreover, the “efficacy (laying of fertile eggs)” value in the test on Boophilus microplus came to 100%.

Turning to `CN(C)C(=O)C(=O)Nc1cc(-c2cnn(-c3c(C(F)(F)F)c(C(F)(F)C(F)(F)F)nn3C)c2)ccc1F` [Example 1-127], the “efficacy (kill in %)” value with Musca domestica, in the test on Lucilia cuprina and in the test with Ctenocephalides felis [1] was 100% throughout. For the same compound, the efficacy in the test on Phaedon cochleariae, in the test on Rhipicephalus sanguineus, in the test with Spodoptera frugiperda and in the test with Ctenocephalides felis [2] (setting [3]) was 100% each time. The “efficacy (laying of fertile eggs)” value with Boophilus microplus came to 100%.

Regarding `Cc1ncc(-c2cnn(-c3c(C(F)(F)F)c(C(F)(F)C(F)(F)F)nn3C)c2)cc1NC(=O)c1ccc(F)cc1` [Example 2-003], the “efficacy (kill in %)” value with Musca domestica, in the test on Lucilia cuprina and in the test with Ctenocephalides felis [1] was 100% throughout. Also, the efficacy with Phaedon cochleariae, with Rhipicephalus sanguineus, in the test with Spodoptera frugiperda and in the test with Tetranychus urticae was 100% each time. The “efficacy (laying of fertile eggs)” value in the test with Boophilus microplus was 100%.

Turning to `Cc1ncc(-c2cnn(-c3c(C(F)(F)F)c(C(F)(F)C(F)(F)F)nn3C)c2)cc1NC(=O)c1ccncc1` [Example 2-004], the “efficacy (kill in %)” value in the test on Musca domestica came out at 80%; with Lucilia cuprina, 100%; with Ctenocephalides felis [1], 100%. Also, the efficacy in the test with Phaedon cochleariae, in the test with Spodoptera frugiperda and with Tetranychus urticae was 100% each time. Further, the “efficacy (laying of fertile eggs)” value in the test with Boophilus microplus came out at 100%.

The record behind these values is patent publication US10273226B2, “Pyrazolyl-heteroarylamides as pesticides” (Bayer Animal Health GmbH, priority 2014, dated 2019).
